Experimental data as given in PubChem BioAssay AID2823 (Broad Institute, 2010).
Active and inactive are the calls of the source. No rule for the calls is given here.

The compounds below were run against RanGTP-importin-beta complex (human Ran / KPNB1) (assay: Ran–importin-beta interaction inhibitors, confirmation, biochemical, FRET, CFP/YFP, cell-free homogeneous (AID 2823)). Details: CFP-Ran/YFP-importin-beta FRET ratio.
`O=C1CCCN2N=C(SCC(=O)N3N=C(c4ccc(Br)cc4)CC3c3ccc(F)cc3)SC2=N1` (configuration not stated) was tested, and the IC50 was > 50 µM (inactive).
In the case of `O=C(Nc1nc2ccc(S(=O)(=O)N3CCCCC3)cc2s1)c1cccnc1`, the IC50 is reported as > 50 µM (inactive).
In the case of `O=C(O)c1cccc(Nc2c3ccccc3nc3ccccc23)c1`, the IC50 is reported as > 50 µM (inactive).
`CCCN(CCO)Cc1cccc(Br)c1` was tested, and the IC50 was > 50 µM (inactive).
In the case of `Cc1ccc(/C=C/C(=O)Nc2cccc3ncccc23)o1`, the IC50 is reported as > 50 µM (inactive).
In the case of `CC1CCCCN1Cc1c(O)ccc2c(=O)c(-c3nc4ccccc4s3)coc12` (configuration not stated), the IC50 is reported as < 0.38 µM.
`CCOc1ccc(Nc2c3ccccc3nc3ccccc23)cc1` was tested, and the IC50 was > 50 µM (inactive).
In the case of `CCN(CC)S(=O)(=O)c1ccc2oc(C(=O)NCCCN3CCOCC3)c(C)c2c1`, the IC50 is reported as > 50 µM (inactive).
In the case of `O=C(Cc1n[nH]c(=O)c2ccccc12)NCc1ccccn1`, the IC50 is reported as > 50 µM (inactive).
`Cc1ccc(OCC(=O)NCCNC(=O)c2ccc(C)nc2)cc1` was tested, and the IC50 was > 50 µM (inactive).
`COc1cccc(NC(=O)CSc2ncc(S(=O)(=O)c3ccccc3)c(=O)[nH]2)c1` was tested, and the IC50 was > 50 µM (inactive).
`Nc1ccccc1C(=O)NNc1c2ccccc2nc2ccccc12` was tested, and the IC50 was > 50 µM (inactive).
In the case of `O=C(Nc1nonc1NC(=O)c1cccs1)c1cccs1`, the IC50 is reported as > 50 µM (inactive).
`CC1CCN(c2nc3ccccc3nc2C(C#N)C(=O)OC2CCCCC2)CC1` (configuration not stated) was tested, and the IC50 was > 50 µM (inactive).
With `Oc1c(C=Nc2ccccc2)sc(=S)n1Cc1ccccc1` the IC50 was > 50 µM (inactive).
With `CCOC(=O)c1oc2c(CN3CCN(CCO)CC3)c(O)c(CC)cc2c(=O)c1-c1nc2ccccc2s1` the IC50 was 18.4 µM.
With `COCCOC(=O)C1=C(C)NC(=O)NC1c1cccc2ccccc12` (configuration not stated) the IC50 was > 50 µM (inactive).
`O=c1nc(-c2ccccc2Cl)c2cc(F)ccc2[nH]1` was tested, and the IC50 was > 50 µM (inactive).
In the case of `COc1ccc(OC)c(N(CC(=O)O)S(=O)(=O)c2ccc(OC)c(OC)c2)c1`, the IC50 is reported as > 50 µM (inactive).
`C=CCn1c(N)c(C(=O)OC(C)CC)c2nc3ccccc3nc21` (configuration not stated) showed an IC50 of 19.8 µM.
In the case of `CCOC(=O)c1c(N2C(=O)Nc3ccccc3N2O)sc2c1CCCC2`, the IC50 is reported as > 50 µM (inactive).
`CC(C)c1ccc(CN2CCC(Oc3ccc(C(=O)N4CCCC4)cc3)CC2)cc1` was tested, and the IC50 was > 50 µM (inactive).
Compound `CCOCCCNC(=S)NCCCNc1nc2cc3c(cc2cc1C#N)OCO3` has an IC50 of 9.41 µM.
`CCc1ccc(S(=O)(=O)Nc2ccc(-c3nc4cccnc4s3)cc2)s1` was tested, and the IC50 was > 50 µM (inactive).
With `CC(C)NC(=O)C1CC=CCC1C(=O)O` (configuration not stated) the IC50 was > 50 µM (inactive).
With `O=C(c1cc2c(=O)n3ccccc3nc2s1)N1CCN(Cc2ccccc2)CC1` the IC50 was > 50 µM (inactive).
`O=C(NNC(=S)NC(=O)c1ccccc1[N+](=O)[O-])c1ccccc1O` was tested, and the IC50 was > 50 µM (inactive).
In the case of `O=S(=O)(Cc1ccc(Cl)cc1)Nc1ccc2c(c1)OCO2`, the IC50 is reported as > 50 µM (inactive).
With `CC1CN(c2cc(=O)n(-c3cccc(Br)c3)c(=O)[nH]2)CC(C)O1` (configuration not stated) the IC50 was > 50 µM (inactive).
`O=C(Oc1ccc2c3c(c(=O)oc2c1)CCCC3)c1ccco1` gave an IC50 of 16 µM.
In the case of `COCCN1C=C(C(=O)OC)C(c2ccc(Cl)cc2)C(C(=O)OC)=C1`, the IC50 is reported as 9.78 µM.
With `O=C(C1CCCCC1)N1CC(=O)N2CCc3ccccc3C2C1` (configuration not stated) the IC50 was > 50 µM (inactive).
For `C=CCN1C(=O)/C(=C2/Sc3ccccc3N2CC)SC1=S`, the IC50 was > 50 µM (inactive).
`Cc1ccc(-c2ccc(/C=C(\C#N)C(N)=S)n2C)cc1` was tested, and the IC50 was > 50 µM (inactive).
For `CCCCn1c(N)c(N(CCOC)C(=O)CN2c3ccccc3CC2C)c(=O)[nH]c1=O` (configuration not stated), the IC50 was > 50 µM (inactive).
For `CC(C)(C)CN1CCC(n2nccc2NC(=O)c2ccccc2Cl)CC1`, the IC50 was > 50 µM (inactive).
In the case of `CC1=C(C(=O)OCC2CCCO2)C(c2ccccc2OC(C)C)C2=C(CC(c3ccco3)CC2=O)N1` (configuration not stated), the IC50 is reported as 8.41 µM.
In the case of `O=C1C(=O)N(CCS(=O)(=O)c2ccccc2)c2ccc(Cl)cc21`, the IC50 is reported as > 50 µM (inactive).
With `COc1ccc(-c2c(N)nnc3c2[nH]c2ccccc23)cc1OC` the IC50 was > 50 µM (inactive).
`COc1ccc(N2Cc3ccccc3/C2=N\C(=O)Nc2ccccc2)cc1` was tested, and the IC50 was > 50 µM (inactive).
For `O=c1[nH]c(-[n+]2ccc3ccccc3c2)c(/C=N/N=C(\[O-])c2ccccc2)s1`, the IC50 was > 50 µM (inactive).
`CCCn1c(SCC(=O)Nc2ccc(NC(C)=O)cc2)nc2c1c(=O)n(C)c(=O)n2C` was tested, and the IC50 was > 50 µM (inactive).
`CCOC(=O)c1c(N)n(CCCOC(=O)c2ccco2)c2nc3ccccc3nc12` was tested, and the IC50 was 23.7 µM.
In the case of `COCCn1c(=NC(=O)c2ccc3c(c2)OCO3)c(C#N)cc2c(=O)n3cccc(C)c3nc21`, the IC50 is reported as > 50 µM (inactive).
With `COC(=O)C(C)Oc1ccc2c(c1)O/C(=C\c1ccco1)C2=O` (configuration not stated) the IC50 was 15.5 µM.
`Cc1cccc(C2=NN(c3ccc(Br)cc3)[C@@H](C(=O)N3CCOC3=O)[C@@H]2c2ccc(F)cc2)c1` was tested, and the IC50 was 33.6 µM.
`COc1ccc(C2NC(C(=O)O)Cc3c2[nH]c2ccccc32)cc1CN1CCN(c2ccc(F)cc2)CC1` (configuration not stated) gave an IC50 of 7.68 µM.
In the case of `CSc1sc(C)cc1C1C(C#N)=C(N)N(c2cccnc2)C2=C1C(=O)CCC2` (configuration not stated), the IC50 is reported as 48 µM.
For `CCN1/C(=C\C=C\C2=[N+](CC)c3ccccc3C2(C)C)C(C)(C)c2ccccc21`, the IC50 was 9.18 µM.
`CSc1nsc(/C=C/Nc2ccc(C)cc2)c1C#N` was tested, and the IC50 was > 50 µM (inactive).
`O=C(c1cc2ccccc2oc1=O)N1CCN(CCc2ccccc2)CC1` showed an IC50 of 6.7 µM.
`Cc1ccccc1NC(=O)/C(C#N)=C\c1cn(CC(=O)O)c2ccccc12` was tested, and the IC50 was 47.6 µM.
`COC(=O)C1=CN(Cc2ccc(OC)c(OC)c2)C=C(C(=O)OC)C1c1cccc(O)c1` showed an IC50 of 14.3 µM.
With `O=C(COC(=O)CSCC(=O)N1CCCCC1)Nc1ccc(Cl)cc1` the IC50 was > 50 µM (inactive).
Compound `COc1ccc(CCNC(=O)c2cc3c(=O)n4ccccc4nc3n(CCCN3CCOCC3)c2=N)cc1` has an IC50 of 17.9 µM.
In the case of `O=C(c1cccc(-c2ccccc2)c1)N1CC[C@@H](N2CCC(O)CC2)[C@H](O)C1`, the IC50 is reported as > 50 µM (inactive).
Work on `Cc1cccc(C)c1NC(=O)C1=C(O)c2sccc2N(C)S1(=O)=O` yielded an IC50 of 4.36 µM.
`NC(=O)c1ccc(F)cc1` was tested, and the IC50 was > 50 µM (inactive).
`COc1ccc2cc(CCN3C(=O)c4ccccc4C3=O)c(=O)[nH]c2c1` was tested, and the IC50 was > 50 µM (inactive).
`Oc1c(CN2CCN(c3ccc(F)cc3)CC2)cc(Cl)c2cccnc12` was tested, and the IC50 was > 50 µM (inactive).
`COc1ccc(-c2cc(C(F)(F)F)n3nc(N)nc3n2)cc1` gave an IC50 of 14.6 µM.
With `CCCN1CC(O)=C(C#N)C1=O` the IC50 was > 50 µM (inactive).
`O=C(CSCC(=O)NC1CC1)Nc1ccccc1` was tested, and the IC50 was > 50 µM (inactive).
`CCN1C(=S)SC(=O)C1=C1C=C(C)N(Cc2ccco2)C(C)=C1` was tested, and the IC50 was 11.1 µM.
For `CCN(CC)S(=O)(=O)c1ccc(NC(=O)c2cccc3c2C(=O)N(CCOC)C3)cc1`, the IC50 was > 50 µM (inactive).
`CC(NCc1cccs1)C(=O)NC1CCCCC1` (configuration not stated) was tested, and the IC50 was > 50 µM (inactive).
With `CC(=O)N1c2ccc(S(=O)(=O)N3CCC(C(=O)Nc4cccc(Cl)c4)CC3)cc2CC1C` (configuration not stated) the IC50 was > 50 µM (inactive).
Compound `c1ccc2c(c1)nc(NCC1CCCO1)c1nnnn12` (configuration not stated) has an IC50 of 30.3 µM.
In the case of `Cc1c(CCC(=O)NCCCN2CCCC2=O)c(=O)oc2c(C)c(O)ccc12`, the IC50 is reported as 15.6 µM.
For `COc1ccc2cc(C(C)=O)c(=O)oc2c1`, the IC50 was 32.2 µM.
In the case of `CC(=O)c1sc2nc(C)c3c(c2c1N)CCCC3`, the IC50 is reported as 15.3 µM.
With `O=C(c1ccc(F)cc1)c1cc2ccc(O)cc2oc1=O` the IC50 was 11.4 µM.
For `CC(C)(C)C(=O)NC(=S)Nc1ccc(S(=O)(=O)Nc2nccs2)cc1`, the IC50 was > 50 µM (inactive).
For `CN1CCN(c2cc(=O)n(-c3ccc(Cl)cc3)c(=O)[nH]2)CC1`, the IC50 was > 50 µM (inactive).
For `COC(=O)[C@@H]1[C@H]2C[C@H]3c4[nH]c5ccccc5c4CCN3C[C@@H]2CC[C@@H]1O`, the IC50 was > 50 µM (inactive).
In the case of `Cc1nc(Nc2cnc(/C=C/c3cc(C(=O)Nc4cccc(C(F)(F)F)c4)ccc3C)cn2)cc(N2CCNCC2)n1`, the IC50 is reported as 19.7 µM.
`CCN1CCc2c(sc(N)c2C#N)C1` gave an IC50 of 16.5 µM.
For `CCOC(=O)c1c(N)n(CCN2CCCCC2)c2nc3ccccc3nc12`, the IC50 was 32.3 µM.
`Cc1cccc2cc(C#N)c(NCCNC(=O)COc3ccccc3)nc12` was tested, and the IC50 was > 50 µM (inactive).
With `COc1ccc(-n2cnc3cc(NCc4ccco4)ccc32)cc1` the IC50 was > 50 µM (inactive).
In the case of `Nc1c(C(=O)NC2CCCC2)c2nc3ccccc3nc2n1/N=C/c1ccco1`, the IC50 is reported as 14.3 µM.
`Cc1cccc(N2C(=O)/C(=C/c3cccnc3)SC2=S)c1` was tested, and the IC50 was > 50 µM (inactive).
`Cc1cccc(Oc2nc(-c3cccc([N+](=O)[O-])c3)nc3ccccc23)c1C` was tested, and the IC50 was > 50 µM (inactive).
With `Cc1nc2[nH]c(=O)c3c(n2n1)NC1=C(C(=O)CC(C)(C)C1)C3c1ccc(F)cc1` (configuration not stated) the IC50 was 2.73 µM.
`Cc1c(S(=O)(=O)N2CCCC(C(=O)O)C2)cnn1C` (configuration not stated) was tested, and the IC50 was > 50 µM (inactive).
`CCOC(=O)c1c(NC(=O)Nc2ccc(F)cc2)sc2c1CCN(C)C2` was tested, and the IC50 was > 50 µM (inactive).
With `CC1=NC(Nc2nc(C)c3ccccc3n2)=NC(C)(C)C1` the IC50 was > 50 µM (inactive).
Work on `N#C/C(=C/c1ccc(N2CCOCC2)o1)C(=O)N1CCOCC1` yielded an IC50 of 4.46 µM.
`COc1cccc(NC(=O)Nc2ccc3c(c2)N(C)C(=O)CS3)c1` was tested, and the IC50 was > 50 µM (inactive).
`C=CCN1CCc2cccc3c2[C@H]1Cc1ccc(O)c(O)c1-3` was tested, and the IC50 was > 50 µM (inactive).
`Cc1cc(N2C(=O)C(O)=C(C(=O)c3cc4ccccc4o3)C2c2cccc(Cl)c2)no1` (configuration not stated) gave an IC50 of 36 µM.
With `O=C(c1ccccc1)c1cc2ccc(O)cc2oc1=O` the IC50 was 13 µM.
For `COc1ccccc1C(=O)NC(=S)Nc1ccc(N2CCCC2)cc1`, the IC50 was > 50 µM (inactive).
For `CCS(=O)(=O)c1nc(S(=O)(=O)c2ccc(C)cc2)c(NCc2ccccn2)s1`, the IC50 was > 50 µM (inactive).
For `CCOC(=O)c1c(C)oc2cc(Br)c(OCC(N)=O)cc12`, the IC50 was > 50 µM (inactive).
`COC(=O)c1cc(=O)n2c(sc3ccccc32)c1C#N` gave an IC50 of 1.32 µM.
With `COC(=O)c1ccc2c(C(C)(C)O)c(C(C)(C)O)[nH]c2c1` the IC50 was > 50 µM (inactive).
With `O=C(NNc1c2ccccc2nc2ccccc12)C12CC3CC(CC(C3)C1)C2` the IC50 was > 50 µM (inactive).
For `Cc1sc2nc(SCC(=O)NCc3ccco3)n(-c3ccccc3)c(=O)c2c1C`, the IC50 was > 50 µM (inactive).
`COc1ccccc1Nc1c2ccccc2nc2ccccc12` was tested, and the IC50 was > 50 µM (inactive).
In the case of `Oc1c(C(Nc2nc3ccccc3s2)c2ccco2)ccc2cccnc12` (configuration not stated), the IC50 is reported as > 50 µM (inactive).
For `CC1=C(C(=O)OC(C)C)C(c2cccnc2)C2=C(CC(C)(C)CC2=O)N1` (configuration not stated), the IC50 was 20.5 µM.
